The values below come from paper PMC5384871 (British journal of haematology, 2017).

Common to all, as to assay: biochemical kinase assay at […] ATP
Common to all, as to details: read-out: NDI-031301

The target of assay [1] is JAK2 (Homo sapiens, UniProt O60674).
Assay [2] concerns the target T1, JAK3 (Homo sapiens, UniProt P52333).
T1 sequence (P52333 1-1124): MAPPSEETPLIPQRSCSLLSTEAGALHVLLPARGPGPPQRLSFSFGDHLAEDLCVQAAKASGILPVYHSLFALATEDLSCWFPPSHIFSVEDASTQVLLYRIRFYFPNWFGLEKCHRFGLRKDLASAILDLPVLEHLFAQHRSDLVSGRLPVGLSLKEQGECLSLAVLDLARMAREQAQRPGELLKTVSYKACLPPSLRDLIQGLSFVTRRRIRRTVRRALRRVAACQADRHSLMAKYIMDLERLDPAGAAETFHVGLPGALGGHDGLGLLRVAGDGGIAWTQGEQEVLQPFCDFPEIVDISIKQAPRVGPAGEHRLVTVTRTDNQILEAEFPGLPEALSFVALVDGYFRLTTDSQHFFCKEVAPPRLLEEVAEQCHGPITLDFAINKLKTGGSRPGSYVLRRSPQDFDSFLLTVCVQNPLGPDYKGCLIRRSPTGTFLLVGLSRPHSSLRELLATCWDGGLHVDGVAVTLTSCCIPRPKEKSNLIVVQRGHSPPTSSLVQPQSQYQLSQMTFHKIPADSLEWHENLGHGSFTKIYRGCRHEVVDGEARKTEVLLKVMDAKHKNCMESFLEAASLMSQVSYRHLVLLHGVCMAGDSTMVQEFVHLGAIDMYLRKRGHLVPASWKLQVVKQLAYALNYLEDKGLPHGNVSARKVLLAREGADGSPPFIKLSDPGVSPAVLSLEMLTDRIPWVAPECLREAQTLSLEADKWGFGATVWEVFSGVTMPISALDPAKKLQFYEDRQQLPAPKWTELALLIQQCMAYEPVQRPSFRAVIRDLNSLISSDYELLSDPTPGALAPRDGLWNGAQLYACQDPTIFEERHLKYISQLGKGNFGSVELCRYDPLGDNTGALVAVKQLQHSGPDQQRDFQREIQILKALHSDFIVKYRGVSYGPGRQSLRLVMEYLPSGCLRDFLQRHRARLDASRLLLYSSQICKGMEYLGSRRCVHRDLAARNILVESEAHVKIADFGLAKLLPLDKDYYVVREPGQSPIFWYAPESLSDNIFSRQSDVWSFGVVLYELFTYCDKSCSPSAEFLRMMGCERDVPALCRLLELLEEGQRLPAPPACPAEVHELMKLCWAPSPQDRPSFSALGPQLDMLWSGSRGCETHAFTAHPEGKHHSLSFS

For assay [3], the target named is TYK2 (Homo sapiens, UniProt P29597).
Chain of TYK2 (P29597 whole entry): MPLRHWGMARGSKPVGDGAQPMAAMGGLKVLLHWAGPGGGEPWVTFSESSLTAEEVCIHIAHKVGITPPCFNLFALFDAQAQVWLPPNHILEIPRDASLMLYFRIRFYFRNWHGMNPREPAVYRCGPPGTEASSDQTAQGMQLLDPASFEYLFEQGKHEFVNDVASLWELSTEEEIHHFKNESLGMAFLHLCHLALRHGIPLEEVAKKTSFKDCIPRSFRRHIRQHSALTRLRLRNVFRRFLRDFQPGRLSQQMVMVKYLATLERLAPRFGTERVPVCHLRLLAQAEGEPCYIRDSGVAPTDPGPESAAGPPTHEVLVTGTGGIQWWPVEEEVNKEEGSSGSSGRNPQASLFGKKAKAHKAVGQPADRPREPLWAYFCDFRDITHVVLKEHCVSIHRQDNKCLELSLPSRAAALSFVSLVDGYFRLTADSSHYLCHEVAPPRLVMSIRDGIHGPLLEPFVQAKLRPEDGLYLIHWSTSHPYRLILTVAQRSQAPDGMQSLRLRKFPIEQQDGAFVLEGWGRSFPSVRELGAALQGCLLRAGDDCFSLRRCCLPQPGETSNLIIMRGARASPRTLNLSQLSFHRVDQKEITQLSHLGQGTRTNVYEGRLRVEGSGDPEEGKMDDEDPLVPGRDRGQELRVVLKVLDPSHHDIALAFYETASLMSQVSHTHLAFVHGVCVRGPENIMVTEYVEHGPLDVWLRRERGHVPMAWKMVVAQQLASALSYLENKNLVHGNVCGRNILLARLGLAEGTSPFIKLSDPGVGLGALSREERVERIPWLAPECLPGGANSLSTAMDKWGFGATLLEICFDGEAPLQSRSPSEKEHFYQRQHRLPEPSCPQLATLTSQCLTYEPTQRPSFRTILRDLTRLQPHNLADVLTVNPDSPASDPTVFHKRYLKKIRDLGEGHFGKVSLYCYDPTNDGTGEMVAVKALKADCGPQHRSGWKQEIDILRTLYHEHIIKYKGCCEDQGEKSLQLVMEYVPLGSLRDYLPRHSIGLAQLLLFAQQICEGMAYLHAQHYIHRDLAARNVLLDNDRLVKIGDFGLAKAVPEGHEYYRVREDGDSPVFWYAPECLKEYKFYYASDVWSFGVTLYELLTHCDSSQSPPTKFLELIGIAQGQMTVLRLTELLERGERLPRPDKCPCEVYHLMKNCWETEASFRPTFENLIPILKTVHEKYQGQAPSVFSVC
The target of assay [4] is JAK1 (Homo sapiens, UniProt P23458).
Chain of JAK1 (P23458 whole entry): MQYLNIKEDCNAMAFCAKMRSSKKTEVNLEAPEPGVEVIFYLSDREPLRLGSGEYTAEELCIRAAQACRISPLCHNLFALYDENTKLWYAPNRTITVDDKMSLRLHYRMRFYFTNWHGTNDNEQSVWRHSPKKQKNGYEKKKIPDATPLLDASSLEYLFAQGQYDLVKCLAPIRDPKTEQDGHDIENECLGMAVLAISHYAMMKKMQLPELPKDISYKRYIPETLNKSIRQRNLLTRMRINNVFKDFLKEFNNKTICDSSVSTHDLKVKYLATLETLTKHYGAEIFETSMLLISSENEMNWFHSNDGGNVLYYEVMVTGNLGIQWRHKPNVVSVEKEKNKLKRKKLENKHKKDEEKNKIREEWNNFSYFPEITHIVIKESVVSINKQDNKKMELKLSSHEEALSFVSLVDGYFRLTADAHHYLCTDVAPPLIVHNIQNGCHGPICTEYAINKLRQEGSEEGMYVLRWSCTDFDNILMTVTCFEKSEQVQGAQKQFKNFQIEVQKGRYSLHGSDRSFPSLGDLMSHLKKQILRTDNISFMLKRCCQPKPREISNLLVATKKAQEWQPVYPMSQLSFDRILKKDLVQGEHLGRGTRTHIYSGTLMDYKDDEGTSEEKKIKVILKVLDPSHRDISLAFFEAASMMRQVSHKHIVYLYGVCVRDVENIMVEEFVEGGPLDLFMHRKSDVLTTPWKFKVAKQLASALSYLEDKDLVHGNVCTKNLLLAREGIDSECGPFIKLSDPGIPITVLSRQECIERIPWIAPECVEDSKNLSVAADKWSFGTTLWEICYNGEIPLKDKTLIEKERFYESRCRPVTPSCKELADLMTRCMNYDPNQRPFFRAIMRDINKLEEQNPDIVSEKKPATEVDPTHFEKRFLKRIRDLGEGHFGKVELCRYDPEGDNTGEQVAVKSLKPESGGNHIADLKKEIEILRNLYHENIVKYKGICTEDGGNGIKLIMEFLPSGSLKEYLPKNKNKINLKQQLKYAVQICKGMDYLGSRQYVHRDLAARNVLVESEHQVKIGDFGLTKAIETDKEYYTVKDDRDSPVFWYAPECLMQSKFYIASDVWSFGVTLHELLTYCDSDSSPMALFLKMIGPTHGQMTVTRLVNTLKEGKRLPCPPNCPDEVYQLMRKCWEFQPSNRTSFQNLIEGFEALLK

Chain of JAK2 (O60674 whole entry): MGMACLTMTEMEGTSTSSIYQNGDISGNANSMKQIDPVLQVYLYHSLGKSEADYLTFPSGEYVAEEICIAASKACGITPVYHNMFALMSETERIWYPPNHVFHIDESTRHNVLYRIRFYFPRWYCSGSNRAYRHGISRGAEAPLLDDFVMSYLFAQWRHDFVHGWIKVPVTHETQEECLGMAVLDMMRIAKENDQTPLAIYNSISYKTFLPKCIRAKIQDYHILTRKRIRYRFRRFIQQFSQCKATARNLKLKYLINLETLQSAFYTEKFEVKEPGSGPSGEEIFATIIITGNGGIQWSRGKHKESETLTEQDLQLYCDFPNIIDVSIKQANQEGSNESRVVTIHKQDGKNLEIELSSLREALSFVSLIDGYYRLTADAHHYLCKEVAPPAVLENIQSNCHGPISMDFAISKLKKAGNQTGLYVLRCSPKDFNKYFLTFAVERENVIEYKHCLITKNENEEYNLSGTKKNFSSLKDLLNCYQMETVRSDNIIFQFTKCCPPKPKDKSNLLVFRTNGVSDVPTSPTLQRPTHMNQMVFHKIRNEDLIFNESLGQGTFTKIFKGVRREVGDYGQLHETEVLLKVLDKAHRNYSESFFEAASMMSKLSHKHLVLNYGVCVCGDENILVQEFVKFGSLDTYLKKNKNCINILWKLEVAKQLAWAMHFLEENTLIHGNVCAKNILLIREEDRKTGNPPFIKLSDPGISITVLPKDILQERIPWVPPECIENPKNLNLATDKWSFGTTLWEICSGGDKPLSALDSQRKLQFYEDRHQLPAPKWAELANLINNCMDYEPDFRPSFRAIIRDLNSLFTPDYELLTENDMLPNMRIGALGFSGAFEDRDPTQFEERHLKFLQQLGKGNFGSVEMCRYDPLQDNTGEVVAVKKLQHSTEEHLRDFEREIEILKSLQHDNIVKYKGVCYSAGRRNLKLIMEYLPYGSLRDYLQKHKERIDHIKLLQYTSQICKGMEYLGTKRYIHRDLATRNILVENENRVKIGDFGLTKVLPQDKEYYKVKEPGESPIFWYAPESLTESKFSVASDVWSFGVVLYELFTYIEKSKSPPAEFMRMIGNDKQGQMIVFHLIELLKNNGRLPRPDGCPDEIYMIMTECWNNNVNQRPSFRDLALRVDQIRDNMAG

NDI-031301: the Ki stood at 2750 nM in assay [1], 2480 nM in assay [2], 130 nM in assay [3] and 2200 nM in assay [4].
